How the values were obtained:
mitochondrial aconitase = molecular target: T1, mitochondrial aconitase (Mus musculus, UniProt Q99KI0); assay: In-gel aconitase assay in mouse embryonic fibroblasts, mitochondrial aconitase; type: cell-based
T1 construct: endogenous in cells; host or cells: mouse embryonic fibroblasts
T1 sequence (Q99KI0 28-780): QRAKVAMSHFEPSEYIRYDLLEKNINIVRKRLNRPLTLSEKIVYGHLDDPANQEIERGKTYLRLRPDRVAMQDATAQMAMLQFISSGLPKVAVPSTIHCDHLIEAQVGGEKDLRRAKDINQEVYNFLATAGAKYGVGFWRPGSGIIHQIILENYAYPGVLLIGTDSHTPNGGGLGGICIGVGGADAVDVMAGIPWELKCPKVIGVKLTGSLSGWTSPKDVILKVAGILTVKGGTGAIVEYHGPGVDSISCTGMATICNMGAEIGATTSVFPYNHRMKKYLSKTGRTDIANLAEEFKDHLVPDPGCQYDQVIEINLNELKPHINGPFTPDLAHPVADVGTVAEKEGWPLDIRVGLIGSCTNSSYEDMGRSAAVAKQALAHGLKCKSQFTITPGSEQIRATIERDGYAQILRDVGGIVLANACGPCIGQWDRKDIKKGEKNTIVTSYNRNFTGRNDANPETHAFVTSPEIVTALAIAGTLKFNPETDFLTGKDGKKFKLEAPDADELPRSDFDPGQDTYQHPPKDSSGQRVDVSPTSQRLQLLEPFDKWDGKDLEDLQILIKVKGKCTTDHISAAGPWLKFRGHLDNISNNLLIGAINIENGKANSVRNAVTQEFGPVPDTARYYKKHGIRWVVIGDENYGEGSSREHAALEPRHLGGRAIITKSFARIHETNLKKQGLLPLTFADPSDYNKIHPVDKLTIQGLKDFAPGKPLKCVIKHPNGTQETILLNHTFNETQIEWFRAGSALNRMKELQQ
Method: (§1) Cells: Embryonic fibroblasts of 13-day old embryos were isolated from wild type, IRP1−/− mice and IRP2−/− mice as described in LaVaute et al. supra. Myc-tagged HEK 293 Tet-on cell line, in which IRP2 expression was inducible, was prepared and cultured as described Bourdon et al., Blood Cells Mol Dis, 31, 247-255 (2003). Erythroblasts were harvested from bone marrow and purified as described in Cooperman et al., Blood, 106, 1084-1091 (2005).
Aconitase assay: Aconitase activity gels for human lysates were performed as described in Tong et al., infra, and aconitase activity gels for mouse lysate were performed with the following modifications. […] Spectral aconitase activity was measured by following the method of Fillebeen et al., infra, using cis-aconitate as the substrate.
To determine whether the effect of Tempo1 on IRP1 activity was kinetically consistent with oxidative disassembly of the iron sulfur cluster, the effect of Tempo1 on aconitase activity was compared to that of the iron chelator, deferiprone (DFO), which activates IRE-binding activity of IRP1 by limiting de novo synthesis and repair of the iron sulfur cluster in IRP1. […] Recovery of aconitase activity was assessed in wild type and IRP2−/− cells.

L-ferritin (L-Ft) = assay: Western blot of L-ferritin in IRP2−/− embryonic fibroblasts; type: cell-based, mouse; conditions: 0.3 and 1.0 mM, 16 h, with or without FAC
Method: as §1
Western blotting and antibodies: Protein analysis was carried out as described in LaVaute et al., supra. Equal amounts of protein (20-40 μg/lane) were separated on 13% SDSPAGE and transferred to nitrocellulose membranes. The membrane was blocked with 5% non-fat milk, 0.1% Triton X-100 in PBS and probed at RT in the same blocking buffer. IRP1 antibody was prepared against purified hIRP1 and used at 1:5000 dilution. L-ferritin antibody was raised in rabbit from L-ferritin protein purified from mouse livers. […]
To study the effect of Tempo1 on the IRE-binding activity of IRP1, IRP2−/− embryonic fibroblasts that were maintained in culture supplemented with 0, 0.3 and 1.0 mM Tempo1, with or without ferric ammonium citrate (FAC), for 16 h. […] Quantification was performed with the IQMac (IRP1 activity) or NIH Image (protein levels) program. Error bars represent the standard deviation calculated from the results of two different sets of experiments.

ferritin = assay: Western blot of ferritin in cerebellar lysates; type: in vivo; conditions: cerebellar lysates of IRP2−/− mice, Tempo1 diet vs control diet
Method: Diet: The mice were weaned 3-4 weeks after their birth. Immediately after weaning, mice were maintained on either a Tempo1-supplemented or control diet. In the Tempo1-supplemented diet, powdered Tempo1 was uniformly mixed with bacon-flavored mouse chow by a “cold press” technique (Bio-Serv, Frenchtown, N.J., USA) at a concentration of 10 mg/g of food. Bacon-flavored chow without Tempo1 was used as the control diet.
Tissue and lysate preparation: Animals were euthanized and tissues were frozen in liquid nitrogen immediately after harvesting, and stored at −80° C. under argon. Experiments were performed on tissues that were pulverized in liquid N2-cooled mortars in an anaerobic chamber, and then lysed in lysis buffer that was deaerated by cyclic freezethaw and air-removal with argon. Nuclei and debris were removed by centrifugation. Preparations of lysates for assays of IRP1 activity, western blotting, carbonyl assay and protein analysis were performed anaerobically. […]
Cerebellar lysates from wild-type and IRP2−/− mice that were maintained on a control diet or on a Tempo1-supplemented diet were analyzed for ferritin and actin expression. […] Quantification was performed with the NIH Image program. Error bars represent the standard deviation calculated from the results of three different sets of animals. […]

CC1(C)CC(O)CC(C)(C)N1[O] [Tempo1]
mitochondrial aconitase activity (mitochondrial aconitase): does not substantially affect
ferritin levels (L-ferritin (L-Ft)): decreased
ferritin levels (ferritin): reduced
